Assay results reported in US20260108483A1, “METHODS AND COMPOSITIONS FOR PREVENTING THE PROGRESSION OF DIABETIC RETINOPATHY AND RELATED CONDITIONS” (Opus Genetics, Inc., priority 2023, published 2026).
Structures can show the parent of a compound that is named as a salt.

Test: Dynamic vapor sorption (DVS) analysis
Type: physicochemical

maximum water adsorption (DVS) (at 82% RH): about 1.52% | water retained at the end of the desorption branch (DVS) (end of desorption): 0.19% | crystalline form of post-DVS sample (XRPD) versus pre-DVS sample (subsequent XRPD analysis after DVS): maintained the same crystalline form
Structure (SMILES): CCCCCCCCC/C(=C\C1=C(C)C(=O)C(OC)=C(OC)C1=O)C(=O)O [Compound 1 calcium salt]
